Assays:
[1] = DRUGMATRIX: Sigma2 radioligand binding (ligand: [3H] Ifenprodil); format: cell membranes, Rattus norvegicus, Wistar, Brain, Membrane; conditions: Not Active = under 50% inhibition at 10 µM
[2] = DRUGMATRIX: Glutamate, Kainate radioligand binding (ligand: [3H] Kainic acid); format: cell membranes, Rattus norvegicus, Wistar, Brain, Membrane; conditions: Not Active = under 50% inhibition at 10 µM
[3] = target: T1, 3-hydroxy-3-methylglutaryl-coenzyme A reductase (Homo sapiens, UniProt P04035); parameters: species or system Escherichia coli;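 further: enzyme inhibition assay of HMG-CoA reductase using radiolabeled [14C]HMG-CoA as substrate; in other assays of this panel Not Active means under 50% inhibition at 10 µM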
T1 sequence (P04035 whole entry): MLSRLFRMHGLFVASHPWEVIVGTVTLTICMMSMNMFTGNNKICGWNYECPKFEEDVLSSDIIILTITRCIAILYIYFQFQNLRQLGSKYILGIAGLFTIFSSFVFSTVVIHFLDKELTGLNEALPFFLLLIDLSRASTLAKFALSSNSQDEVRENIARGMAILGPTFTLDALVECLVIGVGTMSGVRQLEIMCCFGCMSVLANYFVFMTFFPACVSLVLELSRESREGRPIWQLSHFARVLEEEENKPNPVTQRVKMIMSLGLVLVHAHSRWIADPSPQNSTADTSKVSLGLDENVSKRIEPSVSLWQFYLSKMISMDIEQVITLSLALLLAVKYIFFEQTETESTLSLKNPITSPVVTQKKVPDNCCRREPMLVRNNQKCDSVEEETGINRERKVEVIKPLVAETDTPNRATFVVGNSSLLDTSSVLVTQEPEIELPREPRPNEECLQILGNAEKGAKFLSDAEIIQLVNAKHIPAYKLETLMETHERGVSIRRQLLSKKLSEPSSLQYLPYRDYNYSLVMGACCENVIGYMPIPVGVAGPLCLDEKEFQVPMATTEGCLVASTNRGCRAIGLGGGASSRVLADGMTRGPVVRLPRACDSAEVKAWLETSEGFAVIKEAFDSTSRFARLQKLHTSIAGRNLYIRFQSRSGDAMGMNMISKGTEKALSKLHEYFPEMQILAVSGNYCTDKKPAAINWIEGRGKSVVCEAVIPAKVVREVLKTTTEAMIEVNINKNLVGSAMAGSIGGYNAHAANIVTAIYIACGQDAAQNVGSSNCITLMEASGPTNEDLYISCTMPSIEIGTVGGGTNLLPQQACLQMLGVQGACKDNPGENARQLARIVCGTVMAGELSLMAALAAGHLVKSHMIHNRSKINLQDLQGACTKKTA

[4] = target: T2, Muscarinic acetylcholine receptor M2 (Homo sapiens, UniProt P08172); format: cell membranes, CHO-K1, Membrane; further: in other assays of this panel Not Active means under 50% inhibition at 10 µM
T2 sequence (P08172 whole entry): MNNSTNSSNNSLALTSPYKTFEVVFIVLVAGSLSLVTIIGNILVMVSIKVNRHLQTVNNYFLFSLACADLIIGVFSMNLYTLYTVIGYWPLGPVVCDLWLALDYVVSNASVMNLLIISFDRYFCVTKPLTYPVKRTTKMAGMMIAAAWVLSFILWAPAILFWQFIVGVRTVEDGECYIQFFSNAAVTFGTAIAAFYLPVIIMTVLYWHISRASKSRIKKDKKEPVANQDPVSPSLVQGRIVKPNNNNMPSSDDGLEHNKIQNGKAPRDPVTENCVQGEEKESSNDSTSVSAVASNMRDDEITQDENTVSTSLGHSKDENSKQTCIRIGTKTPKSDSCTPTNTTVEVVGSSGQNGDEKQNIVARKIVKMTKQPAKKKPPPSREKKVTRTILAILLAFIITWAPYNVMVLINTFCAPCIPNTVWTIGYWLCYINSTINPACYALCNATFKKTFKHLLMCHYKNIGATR

Thromboxane-A synthase = target: T3, Thromboxane-A synthase (Homo sapiens, UniProt P24557); test: biochemical; format: tissue-based, Platelet; conditions: platelet;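 further: enzyme inhibition assay with PGH2 supplied as substrate; in other assays of this panel Not Active means under 50% inhibition at 10 µM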
T3 sequence (P24557 whole entry): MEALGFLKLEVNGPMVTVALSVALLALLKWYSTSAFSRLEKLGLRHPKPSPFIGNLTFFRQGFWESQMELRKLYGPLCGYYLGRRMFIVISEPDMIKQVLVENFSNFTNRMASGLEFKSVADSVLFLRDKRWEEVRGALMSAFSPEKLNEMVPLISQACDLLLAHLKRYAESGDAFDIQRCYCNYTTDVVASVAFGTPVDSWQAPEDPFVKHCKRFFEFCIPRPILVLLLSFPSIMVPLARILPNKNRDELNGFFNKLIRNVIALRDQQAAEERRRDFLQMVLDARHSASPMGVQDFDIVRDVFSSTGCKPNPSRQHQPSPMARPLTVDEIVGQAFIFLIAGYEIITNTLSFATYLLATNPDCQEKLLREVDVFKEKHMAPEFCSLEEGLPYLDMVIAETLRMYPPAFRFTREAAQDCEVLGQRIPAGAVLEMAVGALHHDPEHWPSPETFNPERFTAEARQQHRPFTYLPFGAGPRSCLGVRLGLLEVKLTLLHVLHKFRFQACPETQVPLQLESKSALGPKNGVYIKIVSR

Caspase-1 = target: T4, Caspase-1 (Homo sapiens, UniProt P29466); parameters: species or system Escherichia coli;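 further: Caspase-1 enzyme inhibition assay with a peptide substrate; in other assays of this panel Not Active means under 50% inhibition at 10 µM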
T4 sequence (P29466 whole entry): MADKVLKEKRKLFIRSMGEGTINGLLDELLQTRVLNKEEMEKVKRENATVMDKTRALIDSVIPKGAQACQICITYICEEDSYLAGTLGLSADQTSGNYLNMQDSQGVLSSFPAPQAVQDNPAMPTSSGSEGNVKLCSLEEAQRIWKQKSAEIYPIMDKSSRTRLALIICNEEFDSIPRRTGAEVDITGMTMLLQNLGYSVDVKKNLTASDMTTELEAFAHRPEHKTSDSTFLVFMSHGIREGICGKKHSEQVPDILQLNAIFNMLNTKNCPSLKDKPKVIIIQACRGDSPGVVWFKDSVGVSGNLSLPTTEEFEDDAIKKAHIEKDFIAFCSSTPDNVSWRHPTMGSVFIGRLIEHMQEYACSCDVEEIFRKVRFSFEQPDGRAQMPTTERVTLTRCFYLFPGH

Insulin receptor = Insulin receptor (Rattus norvegicus, UniProt P15127); format: cell membranes, Wistar, Liver, Membrane; further: in other assays of this panel Not Active means under 50% inhibition at 10 µM
Sequence of Insulin receptor (P15127 27-759 limits assumed): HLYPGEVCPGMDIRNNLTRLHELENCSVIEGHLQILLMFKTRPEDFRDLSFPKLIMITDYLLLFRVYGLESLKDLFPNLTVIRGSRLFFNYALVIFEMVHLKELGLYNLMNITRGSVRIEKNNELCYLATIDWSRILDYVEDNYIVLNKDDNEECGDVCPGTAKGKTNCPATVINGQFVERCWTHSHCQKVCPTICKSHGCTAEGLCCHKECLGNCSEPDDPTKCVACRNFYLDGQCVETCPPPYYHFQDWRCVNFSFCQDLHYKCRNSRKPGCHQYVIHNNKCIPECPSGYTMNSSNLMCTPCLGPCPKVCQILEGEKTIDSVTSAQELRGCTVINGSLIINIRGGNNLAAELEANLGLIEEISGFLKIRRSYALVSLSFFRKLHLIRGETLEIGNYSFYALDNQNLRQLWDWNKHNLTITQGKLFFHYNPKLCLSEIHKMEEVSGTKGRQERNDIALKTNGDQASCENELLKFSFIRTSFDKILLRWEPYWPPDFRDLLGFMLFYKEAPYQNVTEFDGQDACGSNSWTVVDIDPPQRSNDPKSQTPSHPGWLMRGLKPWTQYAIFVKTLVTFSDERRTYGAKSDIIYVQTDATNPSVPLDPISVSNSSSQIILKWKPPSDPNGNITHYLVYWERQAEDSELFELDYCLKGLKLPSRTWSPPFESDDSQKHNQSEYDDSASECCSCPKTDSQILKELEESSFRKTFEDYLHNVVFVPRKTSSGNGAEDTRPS
Sequence of Insulin receptor (P15127 764-1383 limits assumed): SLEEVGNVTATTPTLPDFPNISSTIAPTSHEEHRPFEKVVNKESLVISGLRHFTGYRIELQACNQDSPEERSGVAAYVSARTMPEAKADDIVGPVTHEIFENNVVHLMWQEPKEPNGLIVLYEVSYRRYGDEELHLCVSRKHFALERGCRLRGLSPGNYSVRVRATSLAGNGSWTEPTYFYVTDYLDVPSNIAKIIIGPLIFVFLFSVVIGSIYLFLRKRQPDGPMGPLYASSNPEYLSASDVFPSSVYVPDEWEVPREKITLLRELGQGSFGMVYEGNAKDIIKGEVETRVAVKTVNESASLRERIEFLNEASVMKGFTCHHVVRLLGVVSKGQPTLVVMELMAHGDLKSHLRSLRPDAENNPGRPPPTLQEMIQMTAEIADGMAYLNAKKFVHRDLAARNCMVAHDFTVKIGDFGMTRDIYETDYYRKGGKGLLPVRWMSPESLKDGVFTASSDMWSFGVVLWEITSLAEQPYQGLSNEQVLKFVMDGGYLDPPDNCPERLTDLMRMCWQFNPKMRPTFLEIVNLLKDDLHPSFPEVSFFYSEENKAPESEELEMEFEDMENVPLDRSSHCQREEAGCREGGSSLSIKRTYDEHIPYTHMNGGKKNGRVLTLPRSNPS

| Structure (SMILES) | IC50 ([1]; read-out: IC50) [nM] | Ki ([1]; read-out: Ki) [nM] | IC50 [2] | Ki [2] | IC50 [3] | IC50 ([4]; cho-k1) | IC50 (Thromboxane-A synthase) | IC50 (Caspase-1) | IC50 (Insulin receptor) | IC50 [1] | Ki [1] | IC50 (Caspase-1; read-out: IC50) [µM] | IC50 ([4]; read-out: IC50) [nM] | Ki ([4]; read-out: Ki) [nM] |
| --- | --- | --- | --- | --- | --- | --- | --- | --- | --- | --- | --- | --- | --- | --- |
| N=C(Nc1ccccc1)Nc1ccccc1 | 2640 | 1620 | Not Active | Not Active | Not Active | Not Active | Not Active | Not Active | Not Active | – | – | – | – | – |
| ClC(Cl)Cl [CHLOROFORM] | – | – | Not Active | Not Active | Not Active | Not Active | Not Active | Not Active | Not Active | Not Active | Not Active | – | – | – |
| N=C(N)NC(=O)c1nc(Cl)c(N)nc1N [AMILORIDE] | – | – | Not Active | Not Active | Not Active | Not Active | Not Active | Not Active | Not Active | Not Active | Not Active | – | – | – |
| CCN1CC(CCN2CCOCC2)C(c2ccccc2)(c2ccccc2)C1=O (configuration not stated) [DOXAPRAM] | – | – | Not Active | Not Active | Not Active | Not Active | Not Active | Not Active | Not Active | Not Active | Not Active | – | – | – |
| Cc1ccc(S(=O)(=O)NC(=O)NN2CC3CCCC3C2)cc1 (configuration not stated) [GLICLAZIDE] | – | – | Not Active | Not Active | Not Active | Not Active | Not Active | Not Active | Not Active | Not Active | Not Active | – | – | – |
| COc1cccc2c1C(=O)c1c(O)c3c(c(O)c1C2=O)C[C@@](O)(C(=O)CO)C[C@@H]3O[C@H]1C[C@H](N)[C@H](O)[C@H](C)O1 [DOXORUBICIN] | – | – | Not Active | Not Active | Not Active | Not Active | Not Active | – | Not Active | Not Active | Not Active | 12.2 | – | – |
| Cn1c(=O)c2c(ncn2CC2OCCO2)n(C)c1=O [DOXOFYLLINE] | – | – | Not Active | Not Active | Not Active | Not Active | Not Active | Not Active | Not Active | Not Active | Not Active | – | – | – |
| Cc1cc2cc3c(C)cc(=O)oc3c(C)c2o1 [TRIOXSALEN] | – | – | Not Active | Not Active | Not Active | Not Active | Not Active | Not Active | Not Active | Not Active | Not Active | – | – | – |
| Cc1ncc([N+](=O)[O-])n1CCO [METRONIDAZOLE] | – | – | Not Active | Not Active | Not Active | Not Active | Not Active | Not Active | Not Active | Not Active | Not Active | – | – | – |
| O=C(C1CCCCC1)N1CC(=O)N2CCc3ccccc3C2C1 (configuration not stated) [PRAZIQUANTEL] | – | – | Not Active | Not Active | Not Active | Not Active | Not Active | Not Active | Not Active | Not Active | Not Active | – | – | – |
| C=C1CC[C@H](O)C/C1=C/C=C1\CCC[C@]2(C)[C@@H]([C@H](C)CCCC(C)C)CC[C@@H]12 [CHOLECALCIFEROL] | – | – | Not Active | Not Active | Not Active | Not Active | Not Active | Not Active | Not Active | Not Active | Not Active | – | – | – |
| CC(=O)OCC(=O)[C@@]1(O)CC[C@H]2[C@@H]3CCC4=CC(=O)CC[C@]4(C)[C@H]3C(=O)C[C@@]21C [CORTISONE ACETATE] | – | – | Not Active | Not Active | Not Active | Not Active | Not Active | Not Active | Not Active | Not Active | Not Active | – | – | – |
| COc1ccc2[nH]c([S+]([O-])Cc3ncc(C)c(OC)c3C)nc2c1 (configuration not stated) [OMEPRAZOLE] | – | – | Not Active | Not Active | Not Active | Not Active | Not Active | Not Active | Not Active | Not Active | Not Active | – | – | – |
| C[C@@]12C(=O)OC(=O)[C@]1(C)[C@H]1CC[C@@H]2O1 [CANTHARIDIN] | – | – | Not Active | Not Active | Not Active | Not Active | Not Active | Not Active | Not Active | Not Active | Not Active | – | – | – |
| Nc1c(CC(=O)O)cccc1C(=O)c1ccc(Br)cc1 [BROMFENAC] | – | – | Not Active | Not Active | Not Active | Not Active | Not Active | Not Active | Not Active | Not Active | Not Active | – | – | – |
| C[C@H]1O[C@@H](O[C@H]2[C@@H](O)C[C@H](O[C@H]3[C@@H](O)C[C@H](O[C@H]4CC[C@@]5(C)[C@H](CC[C@@H]6[C@@H]5CC[C@]5(C)[C@@H](C7=CC(=O)OC7)CC[C@]65O)C4)O[C@@H]3C)O[C@@H]2C)C[C@H](O)[C@@H]1O [DIGITOXIN] | – | – | Not Active | Not Active | Not Active | Not Active | Not Active | Not Active | Not Active | Not Active | Not Active | – | – | – |
| C[N+](C)(C)CCO.[Cl-] [CHOLINE CHLORIDE] | – | – | Not Active | Not Active | Not Active | Not Active | Not Active | Not Active | Not Active | Not Active | Not Active | – | – | – |
| CN(C)c1ccc(C(=C2C=CC(=[N+](C)C)C=C2)c2ccc(N(C)C)cc2)cc1.[Cl-] [GENTIAN VIOLET] | – | – | Not Active | Not Active | Not Active | – | Not Active | Not Active | Not Active | Not Active | Not Active | – | 1430 | 508 |
| O=S(=O)([O-])CCS.[Na+] [MESNA] | – | – | Not Active | Not Active | Not Active | Not Active | Not Active | Not Active | Not Active | Not Active | Not Active | – | – | – |
